# What was measured:
# Type in all cases: in vivo, human
# [1] = system: sacroiliitis and peripheral oligoarthritis; assay: Example 1: patient with sacroiliitis and peripheral oligoarthritis treated with oral budesonide; conditions: person; for Outcome of previous treatment: sacroiliitis and peripheral oligoarthritis for over 7 years, treatment before budesonide
# Method: (§1) The invention is illustrated by the following examples where budesonide is administered orally using the Entocort™ preparation as described in EP-A-502092.
# They were initially treated with 9 mg of budesonide once a day for the first four weeks and then the dose was reduced to 6 mg per day.
# The normal value of morning stiffness is 0 min. The joint arthritic index was measured using the Lansbury index whose normal value is 0. The spinal movement was measured using Shober's Test whose normal value is from 5 to 6 cm. The joint pain at rest and in motion was estimated using a VAS (visual analogue scale) where 0 represents no pain and 10 very severe pain.
# [2] = system: ankylosing spondylitis; assay: Example 2: patient with ankylosing spondylitis treated with oral budesonide; conditions: person; for Outcome of previous treatment: ankylosing spondylitis for 12 years, treatment before budesonide
# Method: as §1
# The tests were carried out in the same way as in Example 1 except that the laboratory inflammatory activity was measured using the ESR (erythrocyte sedimentation rate) whose normal value is less than 5 mm/h and the C-reactive protein plasma concentration which is usually less than 10 mg/litre.
# [3] = system: rheumatoid arthritis; assay: Example 3: patient with rheumatoid arthritis treated with oral budesonide; conditions: person, 9 mg once a day, after 4 months
# Method: The invention is illustrated by the following examples where budesonide is administered orally using the Entocort™ preparation as described in EP-A-502092. […] They were diagnosed as having rheumatoid arthritis. They were treated with 9 mg of budesonide once a day. The tests for the symptoms were carried out in the same way as in Examples 1 and 2.
# [4] = system: HLA-B27 associated reactive arthritis; assay: Example 4: patient with HLA-B27 associated reactive arthritis treated with oral budesonide; conditions: person
# Method: as §1
# wherein the Ritchie index is an alternative joint arthritic index.
# [5] = system: HLA-B27 associated sacroiliitis with peripheral arthropathies; assay: Example 5: patient with HLA-B27 associated sacroiliitis with peripheral arthropathies treated with oral budesonide; conditions: for Outcome of previous treatment: sacroiliitis with peripheral arthropathies for 8 years, treatment before budesonide
# Method: as §1
# A patient had suffered from a HLA-B27 associated sacroiliitis with peripheral arthropathies for 8 years. […] At admittance to the hospital they suffered from direct pains of the sacroiliac joints and inflammation of the left knee and left ankle.
# [6] = system: rheumatoid arthritis; assay: Example 6: patient with rheumatoid arthritis treated with oral budesonide; conditions: person, 9 mg per day, follow-up 4 weeks
# Method: as §1
# [7] = system: rheumatoid arthritis; assay: Example 7: patient with rheumatoid arthritis treated with oral budesonide; conditions: person, 9 mg per day, three weeks
# Method: The invention is illustrated by the following examples where budesonide is administered orally using the Entocort™ preparation as described in EP-A-502092. A person had suffered from joint swelling and joint pains for about 5 months. At admittance they had symmetric swelling of finger joints, both knees and left ankle. They were on treatment with diclofenac. The rheumatoid factor test was positive and the diagnosis was rheumatoid arthritis. Diclofenac treatment was stopped and they were given 9 mg of budesonide per day.
# [8] = system: rheumatoid arthritis; assay: Example 8: patient with rheumatoid arthritis treated with oral budesonide; conditions: 9 mg once a day
# Method: as §1
# A person had for 2 months suffered from rapidly progressive inflammations of the finger joints of both hands (metacarpophalangeal joints, proximal interphalangeal joints) and the wrists. The diagnosis was rheumatoid arthritis.
# [9] = 9 mg once a day, oral, one month after start, before treatment 8
# [10] = person, oral, second follow-up three weeks after the first, before treatment 7
compound,measurement,setting,value
CCCC1O[C@@H]2C[C@H]3[C@@H]4CCC5=CC(=O)C=C[C@]5(C)[C@H]4[C@@H](O)C[C@]3(C)[C@]2(C(=O)CO)O1 (stereo partly shown) [budesonide],Spinal movement (Shober's Test),"[1]; 9 mg once a day four weeks then 6 mg per day, oral, after 2 months, before treatment 1, normal 5 to 6",4 cm
same,Joint pains at rest (VAS 0-10),"[1]; 9 mg once a day four weeks then 6 mg per day, oral, after 2 months, before treatment 5",1.5/1.5
same,Joint pains in motion (VAS 0-10),"[1]; 9 mg once a day four weeks then 6 mg per day, oral, after 2 months, before treatment 9.5",1.5/1.5
same,Morning stiffness,"[1]; 9 mg once a day four weeks then 6 mg per day, oral, after 2 months, before treatment 120, normal 0",20 min
same,Joint arthritic index (Lansbury index),"[1]; 9 mg once a day four weeks then 6 mg per day, oral, after 2 months, before treatment 127, normal 0",0
same,Spinal movement (Shober's Test),"[2]; 9 mg once a day, oral, one month after start, before treatment 2.5",3.5 cm
same,Joint pains at rest (VAS 0-10),[2]; [9],1
same,Joint pains in motion (VAS 0-10),[2]; [9],1.7
same,ESR rate (erythrocyte sedimentation rate),"[2]; 9 mg once a day, oral, one month after start, before treatment 85, normal less than 5",30 mm/h
same,Joint arthritic index (Lansbury index),"[2]; 9 mg once a day, oral, one month after start, before treatment 127",80
same,C-reactive protein plasma concentration,"[2]; 9 mg once a day, oral, one month after start, before treatment 140, usually less than 10",25 mg/L
same,Morning stiffness,"[2]; 9 mg once a day, oral, one month after start, before treatment 270",0 min
same,C-reactive protein,[3]; before treatment 41,10 mg/L
same,ESR rate,[3]; before treatment 70,16 mm/h
same,Morning stiffness,[3]; before treatment 180,0 min
same,Joint arthritic index (Lansbury index),[3]; before treatment 205,0
same,Ritchie index,"[4]; 9 mg once a day, oral, three weeks, before treatment 9",4
same,Joint arthritic index,"[4]; 9 mg once a day, oral, three weeks, before treatment 112",6
same,Morning stiffness,"[4]; 9 mg once a day, oral, three weeks, before treatment 120",60 min
same,Duration of treatment until they started to improve,[5]; 9 mg per day,2 weeks
same,Ritchie index,"[5]; person, 9 mg per day, oral, 6 weeks after start, before treatment 3",0
same,Joint pains in motion (VAS 0-10),"[5]; person, 9 mg per day, oral, 6 weeks after start, before treatment 8",0/0
same,Joint pains at rest (VAS 0-10),"[5]; person, 9 mg per day, oral, 6 weeks after start, before treatment 9.5",0/0
same,Joint arthritic index,"[5]; person, 9 mg per day, oral, 6 weeks after start, before treatment 127",0
same,Morning stiffness,"[5]; person, 9 mg per day, oral, 6 weeks after start, before treatment 180",0 min
same,Ritchie index,[6]; before treatment 8,5
same,Joint arthritic index,[6]; before treatment 64,0
same,Morning stiffness,[6]; before treatment 120,60 min
same,Joint pains in motion (VAS 0-10),[7]; before treatment 5,0/0
same,Joint pains at rest (VAS 0-10),[7]; before treatment 10,0/0
same,Ritchie index,[7]; before treatment 19,5
same,Joint arthritic index,[7]; before treatment 112,15
same,Morning stiffness,[7]; before treatment 210,15 min
same,Time until they started to feel better,[8],14 days
same,Ritchie index,"[8]; person, oral, first follow-up three weeks after start, before treatment 16",2
same,Joint arthritic index,"[8]; person, oral, first follow-up three weeks after start, before treatment 90",0
same,Joint pains at rest (VAS 0-10),[8]; [10],1/1
same,Joint pains in motion (VAS 0-10),[8]; [10],1/1
CN(Cc1cnc2nc(N)nc(N)c2n1)c1ccc(C(=O)N[C@@H](CCC(=O)O)C(=O)O)cc1 [methotrexate],Outcome of previous treatment,[1],without success
same,Outcome of previous treatment,[2],without success
same,Outcome of previous treatment,[5]; person,without any apparent disease-modifying effect
C[C@]12C=CC(=O)C=C1CC[C@@H]1[C@@H]2[C@@H](O)C[C@@]2(C)[C@H]1CC[C@]2(O)C(=O)CO [prednisolone],Outcome of previous treatment,[1],without success
same,Outcome of previous treatment,"[4]; reactive arthritis, treatment before budesonide",some relief of the joint pains
same,Outcome of previous treatment,[5]; person,without any apparent disease-modifying effect
O=C(O)c1cc(/N=N/c2ccc(S(=O)(=O)Nc3ccccn3)cc2)ccc1O [sulphasalazine],Outcome of previous treatment,[2],without success
same,Outcome of previous treatment,[5]; person,without any apparent disease-modifying effect
